# From article PMC8893300, “A Dynamic Mass Redistribution Assay for the Human Sweet Taste Receptor Uncovers G-Protein Dependent Biased Ligands” (Frontiers in Pharmacology, 2022)
# Test system: human sweet taste receptor (hT1R2/hT1R3) coupled to Gα16gust25
# Assay: FLIPR calcium mobilization assay, R2/R3 Gα16gust25 U2OS cells
# Type: cell-based
# Settings: for ΔlogR FLIPR Mean: FLIPR-Gα16gust25, operational model, logR minus sucralose logR; for ΔΔlogR Mean: ΔlogR FLIPR-Gα16gust25 minus ΔlogR DMR
# Procedure: The R2/R3 U2OS clone produced above was subsequently transfected with a linearized plasmid encoding Gα16gust25 in pcDNA3-neo. Transfected cells surviving triple selection in growth medium containing 0.5 μg/ml Puromycin (for hT1R2 expression), 100 μg/ml zeocin (for hT1R3 expression) and 500 μg/ml geneticin (Gα16gust25 expression) were diluted at various densities to obtain isolated colonies. Individual colonies were expanded, and the presence of functional human sweet receptor and G protein was evaluated in a FLIPR assay using sucralose as the agonist. Selected colonies were further evaluated with a larger panel of agonists. One clone, called L1F2, was used for this study.
# Cells were gently mixed with the virus at a multiplicity of infection (MOI) of 5. Using a multidrop, 70 μl per well of the cell and virus mixture was dispensed in a 384-well clear bottom plate (Fisher). After 24 h of incubation in a humidified 37°C tissue culture incubator, trichostatin A was added to a final concentration of 0.3 μM and the cells were incubated for another 18–24 h at 34°C. On the day of the experiment, cells were loaded with 4 μM of the calcium indicator Fluo-4 AM (Invitrogen) in D-PBS for 1 h at room temperature. After washing the cells with D-PBS using a cell washer (BioTek) and a 30-minute rest time, the cell plate and the compound plate were transferred into the FLIPR-Tetra (Molecular Devices). Imaging and data analysis was performed as described ([Servant et al., 2010]). Alternatively, R2/R3 Gα16gust25 U2OS cells were re-suspended at a final density of 2.25 × 10^5 viable cells per mL and the mixture was dispensed in a 384-well clear bottom plate (Fisher) at 80 μl per well. Loading and the FLIPR assay were run as described above. When indicated, data for agonist dose-responses were normalized to data obtained with a maximum concentration of sucralose (1 mM) and then fitted and plotted using GraphPad Prism (San Diego, CA) and non-linear regression analysis.
# To visualize and assess bias between the two different cell-based assays, we used bias plotting as described ([Drake et al., 2008]; [Peters and Scott, 2009]; [Gregory et al., 2010]; [Thomsen et al., 2012]; [Kenakin, 2015]; [Montero-Melendez et al., 2015]). To calculate relative potency bias between the two assays, we calculated a ratio of the negative logarithm of the EC50 (in M) of each agonist to that of sucralose (a sucralose dose-response was performed as a control on the same day) as described: pEC50 compound X–pEC50 sucralose. This value, that we termed pEC50Ratio (sucralose) or pEC50R (sucralose), was calculated with EC50 values obtained in the two assay systems. This transformation also allowed determination of an average and a standard error for the pEC50R (sucralose). The two sets of data (DMR and FLIPR data) were then analyzed with an un-paired t-test (α = 0.05). To calculate relative efficacy bias between the two assays, we captured the top asymptote value from each activity-normalized dose-response curve, as provided by the curve fit, calculated an average and a standard deviation (sd) for each agonist and then analyzed the data pairs with an un-paired t-test (α = 0.05). Assay bias was also estimated using an operational model ([Kenakin et al., 2012]; [Nagi and Pineyro, 2016]). The following steps were followed: 1) Using the PRISM software, we re-analyzed each ligand’s dose-response data obtained in each assay with non-linear regression and the users-defined equation “New Operational Model with TauKa ratios” and retrieved logR values from the fits.
SMILES,ΔlogR FLIPR Mean,ΔΔlogR Mean
COC(=O)[C@H](Cc1ccccc1)NC(=O)[C@H](CC(=O)O)NCCC(C)(C)C [Neotame],1.52,0.36
CC(C)Oc1ccc(NC(=S)NCc2ccc[nH]2)cc1 [S819],2.40,−0.13
CC(C)Oc1ccc(NC(=S)NCc2cccs2)cc1 [S5227],1.73,−0.12
